In PubChem BioAssay AID2060905 (Molecular Pharmacology Branch, DTP, NCI, 2025):

Test system: 282377-053-R-J1-PDC complex spheroid viability
Assay: Anticancer human tumor 282377-053-R-J1-PDC patient-derived colon adenocarcinoma cell line growth inhibition [RAS]
Details: for IC50: curve of first compound; for viability, T/C: stronger effect = lower value
How it was run: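 Multi-cell-type spheroids: tumor cells plus HUVEC endothelial cells and mesenchymal stem cells. RAS-pathway inhibitors were combined with targeted agents, each dosed in half-log steps down from clinical Cmax, or from 10 microM when Cmax was unknown.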
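Also: spheroids exposed to agents for seven days before readout.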
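For viability, T/C in this document: luminescence viability as percent of DMSO vehicle control wells.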

CC(=O)OC12COC1CC(O)C1(C)C(=O)C(O)C3=C(C)C(OC(=O)C(O)C(NC(=O)OC(C)(C)C)c4ccccc4)CC(O)(C(OC(=O)c4ccccc4)C21)C3(C)C (configuration not stated) + CCn1c(-c2cccnc2C(C)OC)c2c3cc(ccc31)N1CCOC(CC(NC(=O)C(C(C)C)N(C)C(=O)C3(F)CCN(C(=O)C#CC(C)(C)N(C)C)CC3)C(=O)N3CCCC(N3)C(=O)OCC(C)(C)C2)C1 was tested, and the IC50 (second compound 0.000949 µM) was < 31.6 nM, the IC50 (second compound 0.003 µM) was < 31.6 nM and the IC50 (second compound 0.00949 µM) was < 31.6 nM. The IC50 (second compound 0.03 µM) was < 31.6 nM, the IC50 (second compound 0.0949 µM) was < 31.6 nM and the IC50 (second compound 0.3 µM) was > 10000 nM. It also gave a viability, T/C (second compound 0.000949 µM, first compound 0.0316 µM) of 35%, a viability, T/C (second compound 0.000949 µM, first compound 0.1 µM) of 39.9% and a viability, T/C (second compound 0.000949 µM, first compound 0.316 µM) of 40.9%. The viability, T/C (second compound 0.000949 µM, first compound 1 µM) was 50.3%, the viability, T/C (second compound 0.000949 µM, first compound 3.16 µM) was 48.3% and the viability, T/C (second compound 0.000949 µM, first compound 10 µM) was 109%. For the same compound, the viability, T/C (second compound 0.003 µM, first compound 0.0316 µM) was 44.6%, the viability, T/C (second compound 0.003 µM, first compound 0.1 µM) was 44.1% and the viability, T/C (second compound 0.003 µM, first compound 0.316 µM) was 42.8%. For the same compound, the viability, T/C (second compound 0.003 µM, first compound 1 µM) was 43.7%, the viability, T/C (second compound 0.003 µM, first compound 3.16 µM) was 57.7% and the viability, T/C (second compound 0.003 µM, first compound 10 µM) was 92%. For the same compound, the viability, T/C (second compound 0.00949 µM, first compound 0.0316 µM) was 54.8%, the viability, T/C (second compound 0.00949 µM, first compound 0.1 µM) was 43.4% and the viability, T/C (second compound 0.00949 µM, first compound 0.316 µM) was 40.3%. The viability, T/C (second compound 0.00949 µM, first compound 1 µM) was 42.8%, the viability, T/C (second compound 0.00949 µM, first compound 3.16 µM) was 63.7% and the viability, T/C (second compound 0.00949 µM, first compound 10 µM) was 84.7%. The viability, T/C (second compound 0.03 µM, first compound 0.0316 µM) was 48.3%, the viability, T/C (second compound 0.03 µM, first compound 0.1 µM) was 39.7% and the viability, T/C (second compound 0.03 µM, first compound 0.316 µM) was 38.4%. For the same compound, the viability, T/C (second compound 0.03 µM, first compound 1 µM) was 52.5%, the viability, T/C (second compound 0.03 µM, first compound 3.16 µM) was 83.4% and the viability, T/C (second compound 0.03 µM, first compound 10 µM) was 94.6%. The viability, T/C (second compound 0.0949 µM, first compound 0.0316 µM) was 48.9%, the viability, T/C (second compound 0.0949 µM, first compound 0.1 µM) was 51.1% and the viability, T/C (second compound 0.0949 µM, first compound 0.316 µM) was 47.5%. The viability, T/C (second compound 0.0949 µM, first compound 1 µM) was 55.4%, the viability, T/C (second compound 0.0949 µM, first compound 3.16 µM) was 88% and the viability, T/C (second compound 0.0949 µM, first compound 10 µM) was 117%. The viability, T/C (second compound 0.3 µM, first compound 0.0316 µM) was 53.8%, the viability, T/C (second compound 0.3 µM, first compound 0.1 µM) was 54.5% and the viability, T/C (second compound 0.3 µM, first compound 0.316 µM) was 53.6%. The viability, T/C (second compound 0.3 µM, first compound 1 µM) was 66.4%, the viability, T/C (second compound 0.3 µM, first compound 3.16 µM) was 85.5% and the viability, T/C (second compound 0.3 µM, first compound 10 µM) was 119%.
